Measurements from the supplement of paper PMC10307832.

Tests used:
Assay in all cases: relative viability (nuclei count vs DMSO), 5 days (fraction); higher = more cells survive
[1] = system: H3255
Outline: (§1)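 Lung cancer cell lines were pin-tool dosed in 1536-well plates on the day after seeding, with either a lone drug or a fixed anchor-drug dose plus five library-drug doses (not always all listed) in √10 steps. Nuclei were counted on 4× images after 5 days. Relative viability is the ratio of treated-well to vehicle-well nuclei counts, with each value a median of duplicate plates.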

[2] = system: NCI-H650
Outline: as §1

[3] = system: NCI-H2087
Outline: as §1

[4] = system: NCI-H520
Outline: as §1

[5] = system: NCI-H2126
Outline: as §1

[6] = system: NCI-H1915
Outline: as §1

[7] = system: ChaGo-K-1
Outline: as §1

[8] = system: NCI-H1666
Outline: as §1

[9] = system: NCI-H661
Outline: as §1

[10] = system: EPLC-272H
Outline: as §1

[11] = system: PC-14
Outline: as §1

[12] = system: NCI-H322M
Outline: as §1

[13] = system: NCI-H23
Outline: as §1

[14] = system: RERF-LC-KJ
Outline: as §1

[15] = system: COR-L 105
Outline: as §1

[16] = system: NCI-H2347
Outline: as §1

[17] = system: HCC-78
Outline: as §1

[18] = system: 201T
Outline: as §1

[19] = system: HCC-827
Outline: as §1

[20] = system: LCLC-97TM1
Outline: as §1

[21] = system: NCI-H2405
Outline: as §1

[22] = system: NCI-H647
Outline: as §1

[23] = system: LC-2-ad
Outline: as §1

CC1(C)CCC(c2ccc(Cl)cc2)=C(CN2CCN(c3ccc(C(=O)NS(=O)(=O)c4ccc(N[C@H](CCN5CCOCC5)CSc5ccccc5)c(S(=O)(=O)C(F)(F)F)c4)cc3)CC2)C1 [Navitoclax] + COc1cccc2cc(-c3nc([C@H]4CC[C@H](C(=O)O)CC4)n4ncnc(N)c34)[nH]c12 [OSI-027] (partner 0.5 µM)
relative viability ([1]; first compound 0.005 µM): 0.629 | relative viability ([1]; first compound 0.01581 µM): 0.643 | relative viability ([1]; first compound 0.05 µM): 0.568 | relative viability ([1]; first compound 0.1581 µM): 0.67 | relative viability ([1]; first compound 0.5 µM): 0.611 | relative viability ([2]; first compound 0.005 µM): 0.525 | relative viability ([2]; first compound 0.01581 µM): 0.569 | relative viability ([2]; first compound 0.05 µM): 0.525 | relative viability ([2]; first compound 0.1581 µM): 0.498 | relative viability ([2]; first compound 0.5 µM): 0.547 | relative viability ([3]; first compound 0.005 µM): 0.47 | relative viability ([3]; first compound 0.01581 µM): 0.679 | relative viability ([3]; first compound 0.1581 µM): 0.537 | relative viability ([3]; first compound 0.5 µM): 0.794 | relative viability ([4]; first compound 0.01581 µM): 0.231 | relative viability ([4]; first compound 0.05 µM): 0.318 | relative viability ([4]; first compound 0.1581 µM): 0.201 | relative viability ([4]; first compound 0.5 µM): 0.31 | relative viability ([5]; first compound 0.005 µM): 0.764 | relative viability ([5]; first compound 0.01581 µM): 0.849 | relative viability ([5]; first compound 0.1581 µM): 0.72 | relative viability ([5]; first compound 0.5 µM): 0.716 | relative viability ([6]; first compound 0.005 µM): 0.595 | relative viability ([6]; first compound 0.01581 µM): 0.636 | relative viability ([6]; first compound 0.05 µM): 0.627 | relative viability ([6]; first compound 0.1581 µM): 0.521 | relative viability ([6]; first compound 0.5 µM): 0.629 | relative viability ([7]; first compound 0.005 µM): 0.548 | relative viability ([7]; first compound 0.01581 µM): 0.536 | relative viability ([7]; first compound 0.05 µM): 0.541 | relative viability ([7]; first compound 0.1581 µM): 0.55 | relative viability ([7]; first compound 0.5 µM): 0.6 | relative viability ([8]; first compound 0.005 µM): 0.823 | relative viability ([8]; first compound 0.01581 µM): 0.815 | relative viability ([8]; first compound 0.05 µM): 0.859 | relative viability ([8]; first compound 0.1581 µM): 0.758 | relative viability ([8]; first compound 0.5 µM): 0.839 | relative viability ([9]; first compound 0.005 µM): 0.734 | relative viability ([9]; first compound 0.01581 µM): 0.775 | relative viability ([9]; first compound 0.05 µM): 0.793 | relative viability ([9]; first compound 0.1581 µM): 0.687 | relative viability ([9]; first compound 0.5 µM): 0.716 | relative viability ([10]; first compound 0.005 µM): 0.296 | relative viability ([10]; first compound 0.05 µM): 0.323 | relative viability ([10]; first compound 0.1581 µM): 0.317 | relative viability ([10]; first compound 0.5 µM): 0.3 | relative viability ([11]; first compound 0.005 µM): 0.735 | relative viability ([11]; first compound 0.01581 µM): 1.12 | relative viability ([11]; first compound 0.05 µM): 0.767 | relative viability ([11]; first compound 0.1581 µM): 0.842 | relative viability ([11]; first compound 0.5 µM): 0.748 | relative viability ([12]; first compound 0.005 µM): 0.536 | relative viability ([12]; first compound 0.01581 µM): 0.696 | relative viability ([12]; first compound 0.05 µM): 0.552 | relative viability ([12]; first compound 0.1581 µM): 0.545 | relative viability ([12]; first compound 0.5 µM): 0.706 | relative viability ([13]; first compound 0.005 µM): 0.704 | relative viability ([13]; first compound 0.01581 µM): 0.691 | relative viability ([13]; first compound 0.05 µM): 0.529 | relative viability ([13]; first compound 0.1581 µM): 0.582 | relative viability ([13]; first compound 0.5 µM): 0.63 | relative viability ([14]; first compound 0.005 µM): 0.568 | relative viability ([14]; first compound 0.01581 µM): 0.633 | relative viability ([14]; first compound 0.05 µM): 0.498 | relative viability ([14]; first compound 0.1581 µM): 0.599 | relative viability ([14]; first compound 0.5 µM): 0.616 | relative viability ([15]; first compound 0.005 µM): 0.663 | relative viability ([15]; first compound 0.01581 µM): 1.01 | relative viability ([15]; first compound 0.05 µM): 0.573 | relative viability ([15]; first compound 0.1581 µM): 0.775 | relative viability ([15]; first compound 0.5 µM): 0.582 | relative viability ([16]; first compound 0.005 µM): 0.485 | relative viability ([16]; first compound 0.01581 µM): 0.451 | relative viability ([16]; first compound 0.1581 µM): 0.293 | relative viability ([16]; first compound 0.5 µM): 0.401 | relative viability ([17]; first compound 0.005 µM): 0.399 | relative viability ([17]; first compound 0.01581 µM): 0.343 | relative viability ([17]; first compound 0.1581 µM): 0.349 | relative viability ([17]; first compound 0.5 µM): 0.384 | relative viability ([18]; first compound 0.005 µM): 0.73 | relative viability ([18]; first compound 0.01581 µM): 0.805 | relative viability ([18]; first compound 0.05 µM): 0.392 | relative viability ([18]; first compound 0.1581 µM): 0.707 | relative viability ([18]; first compound 0.5 µM): 0.647 | relative viability ([19]; first compound 0.005 µM): 0.767 | relative viability ([19]; first compound 0.01581 µM): 0.951 | relative viability ([19]; first compound 0.05 µM): 0.74 | relative viability ([19]; first compound 0.1581 µM): 0.761 | relative viability ([19]; first compound 0.5 µM): 0.812 | relative viability ([20]; first compound 0.005 µM): 0.608 | relative viability ([20]; first compound 0.01581 µM): 0.484 | relative viability ([20]; first compound 0.05 µM): 0.569 | relative viability ([20]; first compound 0.1581 µM): 0.482 | relative viability ([20]; first compound 0.5 µM): 0.601 | relative viability ([21]; first compound 0.005 µM): 0.664 | relative viability ([21]; first compound 0.01581 µM): 0.682 | relative viability ([21]; first compound 0.05 µM): 0.644 | relative viability ([21]; first compound 0.1581 µM): 0.632 | relative viability ([21]; first compound 0.5 µM): 0.558 | relative viability ([22]; first compound 0.005 µM): 0.674 | relative viability ([22]; first compound 0.01581 µM): 0.738 | relative viability ([22]; first compound 0.05 µM): 0.891 | relative viability ([22]; first compound 0.1581 µM): 0.611 | relative viability ([22]; first compound 0.5 µM): 0.597 | relative viability ([23]; first compound 0.005 µM): 0.802 | relative viability ([23]; first compound 0.01581 µM): 1.09 | relative viability ([23]; first compound 0.05 µM): 0.895 | relative viability ([23]; first compound 0.1581 µM): 0.762 | relative viability ([23]; first compound 0.5 µM): 0.767
